pIC50: −log10 of the molar value. Read-outs that look alike come from different tables or passages of the source.
What was measured:
d(TTGGGTT)4 [1] = assay: NMR titration of ligands with G-quadruplex oligonucleotide; format: binding; conditions: for Difference from 11.55 ppm (ppm) G3NH: 1H NMR chemical shift difference of G-quadruplex peak G3NH on ligand addition; for Difference from 11.22 ppm (ppm) G4NH: 1H NMR chemical shift difference of G-quadruplex peak G4NH on ligand addition; for Difference from 10.86 ppm (ppm) G5NH: 1H NMR chemical shift difference of G-quadruplex peak G5NH on ligand addition; for Difference from 1.58 ppm (ppm) T6CH3: 1H NMR chemical shift difference of G-quadruplex peak T6CH3 on ligand addition; for Difference from 7.23 ppm (ppm) T6H6/8: 1H NMR chemical shift difference of G-quadruplex peak T6H6/8 on ligand addition; for Δδ (ppm): G quadruplex chemical shift difference
Protocol: Compounds 2a–2e were evaluated for G-quadruplex interaction using NMR titration studies with d(TTGGGTT)4 with intercalation comparisons made against doxorubicin and nemorubicin (see ESI ^† S1). […] We also see the peaks for T6 (methyl, aromatic and ribose) shifting to a lower field in accord with the up-field shift of the G5 peaks. This change is explained by the formation of a complex between the ligand and the tetrad formed at G5, which pushes the T6 unit away from the guanine π-system. This intercalation framework agreed with ESI/MS carried out which illustrated a 1 : 1 complex.[17]
Maximum line broadening occurs at a ratio of 1 : 1 drug to G-quadruplex and chemical shift difference changing up to 1 : 1 with the bound and unbound peaks being present. […]
This oligonucleotide solvent mix was then micro-pipetted at a volume of 0.6ml into NMR tubes. Stock solutions of drug compounds in DMSO-d6 were used to make up the molar ratios of 0.125:1, 0.25:1, 0.5:1 and 1:1 drug to oligomer.
A non-active drug (TC102) and DMSO on its own were added as controls to validate that the effects on the spectra were from cytotoxic elements of the drug compounds rather than the effects from DMSO or addition of compound, which could change environment, pH or shimming of NMR instrument.
Spectra were acquired at 300 K using a Bruker Avance III 600MHz FT‐NMR. The WATERNOESY parameter set which executes the pulse sequence noesygppr1d (Bruker, size […]
experiments with a pre-saturation delay during relaxation and mixing time (experiment time:
14 min 44 sec). With this pulse sequence, all non-exchangeable protons are detected in the deuterated D2O/H2O buffer solution. T1 relaxation experiments were acquired for d1 calibration with a modified version of the zggpw5 pulse sequence. With a saturation recovery […]
pulse and using water suppression (Bruker, size of fid 65536/11 F2/F1, […]
(experimental time 1 h 4 min 6 sec).
Bruker Topspin 3.5 pl7 was used for assignment of peaks, manual phasing, baseline correction and manual integration. Manual integration was done to ensure bias and slope was correct and that the integrals were all of the same width. Calculation of chemical shift change done through built in top spin distance measurements between peaks.

HeLa cells = assay: Presto blue cell viability assay, HeLa cells; format: cell-based, Human; conditions: 24 hour incubation, n = 3
Protocol: Fig. 3 Cell culture, presto blue assay results for 2a, 2b, 2c, 2d, 2e. The data shown is after 24 hour incubation of drug treated HeLa cells. Top chart illustrates mean and SEM of HeLa cell viability at concentrations 100 to 1 μM with positive control (doxorubicin (N2)). In the top charts, values are normalized to negative control (DMSO) at a value of 1 (cell viability). The bottom charts then show the normalized absorbance percentage to the negative control (percentage cell viability) of log inhibitor concentration (multiplied by 10 to account for 1 μM concentration) IC50 values and R squared values are included in the chart. Error bars indicates standard error of mean from n = 3 experiments.
Compounds 2a–2e were subsequently tested against a HeLa cancer cell line (HeLa, American Type Culture Collection (ATCC) (ATCC® CCL-2™)) and they were all prepared in 100, 30, 10 and 1 μM concentrations so that IC50 values could be calculated to establish whether drugs were cytotoxic to HeLa cells (see ESI ^† S1).
Cell suspension (200μl) containing 5000 healthy HeLa cells was seeded in 96-well plates (BDFalcon, Franklin Lakes, NJ) and allowed to attach and stabilize overnight at 37 °C with 5%
CO2. Aspiration of media and rinsing solution was done through pipetting off liquid. Cell viability was then tested with PrestoBlue assay.The presto blue assay was carried out in light sensitive conditions. 100μl of PrestoBlue solution (10% in medium) was added to each well and the plates were incubated at 37 °C for 1 hour. After incubation time, the change in florescence was measured at 570/600 nm using a Spectra Max fluorescence multi-well plate reader.
Dissociation constants were calculated using the curve-fitting software Graphpad Prism 8.
Incubation was done using Thermofisher Steri-Cycle CO2 Incubators and for plate reading Thermofisher Epoch Microplate Spectrophotometer was used. Centrifugation was done by Thermo Scientific Sorvall ST 40 Centrifuge Series.
Commercially available DMEM (Dulbecco’s Modified Eagle Medium- low glucose), including sodium pyruvate and […], 500 mL, was obtained from Gibco, USA. All procedures carried out under sterile conditions, 94 mL of media was taken and the required volume of supplements (10 % Fetal Bovine Serum (FBS), 2 mM/mL Glutamine, 100 U/mL penicillin and 100 µg/mL streptomycin.) were added.
Cell Line and Cell Culture Conditions
Human cervical cancer cell lines (HeLa) were obtained from the American Type Culture Collection (ATCC) (ATCC® CCL-2™). HeLa cells were cultured in Dulbecco’s Eagle Modified Medium low glucose (DMEM) containing 10 % Fetal Bovine Serum (FBS), 2 mM/mL Glutamine, 100 U/mL penicillin and 100 µg/mL streptomycin.
%viable cells = 1 ‒ Number of blue cells x 100 […]
Cryovials were taken from the liquid nitrogen tank and thawed quickly at 37 °C. After that, the cell suspension was transferred to a 15 mL tube and 5 mL of the medium was added into the cell suspension drop by drop with gentle shaking. Centrifugation was done at 1500rpm for 5 min and then supernatant was discarded. After the pellet was resuspended with medium, they were seeded to T-25 flasks. Subsequent to 12 hours incubation, the media was removed and washed with DPBS (1X) (pH:7.4) containing 10 mM sodium dibasic phosphate, 2.7 mM KCI, 2 mM Potassium phosphate,137 mM NaCI. Fresh media was added to the cell monolayer a […]
Assays were carried out using a 96 well plate. This 96-well plate contains one blank, 3 controls which contains cells including a negative control with media, one vehicle control which is DMSO and medium solutions, and a positive control of Doxorubicin (200µL) and media. Drugs were prepared in 100, 30, 10, 1 µM concentrations to make 8 seeded well plates in total which were done in triplicate. All drugs were prepared in DMSO and then diluted in media to give 5µL of DMSO max in 100µM treatments which is controlled by vehicle with a DMSO volume

d(TTGGGTT)4 [2] = system: d(TTGGGTT)4; design: method as in PMID 26922833; conditions: G quadruplex chemical shift difference; cited from earlier work

With C(=N\Cc1ccc2c(c1)OCO2)/c1c2ccccc2c(/C=N/Cc2ccc3c(c2)OCO3)c2ccccc12 [Compound 2a] the “Difference from 11.55 ppm (ppm) G3NH” value (d(TTGGGTT)4 [1]) was −0.04 ppm, the “Difference from 11.22 ppm (ppm) G4NH” value (d(TTGGGTT)4 [1]) was −0.08 ppm and the “Difference from 10.86 ppm (ppm) G5NH” value (d(TTGGGTT)4 [1]) was −0.2 ppm. For the same compound, the “Difference from 1.58 ppm (ppm) T6CH3” value (d(TTGGGTT)4 [1]) was 0.09 ppm, the “Difference from 7.23 ppm (ppm) T6H6/8” value (d(TTGGGTT)4 [1]) was 0.17 ppm and the “Δδ (ppm)” value (d(TTGGGTT)4 [1]) was 0.2 ppm. For the same compound, the pIC50 (HeLa cells; Homo sapiens, HeLa, 24 h) was 4.74.

For C(=N\CCCN1CCOCC1)/c1c2ccccc2c(/C=N/CCCN2CCOCC2)c2ccccc12 [Compound 2b], the “Difference from 11.55 ppm (ppm) G3NH” value (d(TTGGGTT)4 [1]) was −0.066 ppm, the “Difference from 11.22 ppm (ppm) G4NH” value (d(TTGGGTT)4 [1]) was −0.135 ppm and the “Difference from 10.86 ppm (ppm) G5NH” value (d(TTGGGTT)4 [1]) was −0.34 ppm. For the same compound, the “Difference from 1.58 ppm (ppm) T6CH3” value (d(TTGGGTT)4 [1]) was 0.093 ppm, the “Difference from 7.23 ppm (ppm) T6H6/8” value (d(TTGGGTT)4 [1]) was 0.22 ppm and the “Δδ (ppm)” value (d(TTGGGTT)4 [1]) was 0.34 ppm. The pIC50 (HeLa cells; Homo sapiens, HeLa, 24 h) was 4.61.

In the case of C(=N\CCc1c[nH]c2ccccc12)/c1c2ccccc2c(/C=N/CCc2c[nH]c3ccccc23)c2ccccc12 [Compound 2c], the “Difference from 11.55 ppm (ppm) G3NH” value (d(TTGGGTT)4 [1]) was −0.06 ppm, the “Difference from 11.22 ppm (ppm) G4NH” value (d(TTGGGTT)4 [1]) was −0.115 ppm and the “Difference from 10.86 ppm (ppm) G5NH” value (d(TTGGGTT)4 [1]) was −0.25 ppm. For the same compound, the “Difference from 1.58 ppm (ppm) T6CH3” value (d(TTGGGTT)4 [1]) was 0.157 ppm, the “Difference from 7.23 ppm (ppm) T6H6/8” value (d(TTGGGTT)4 [1]) was 0.126 ppm and the “Δδ (ppm)” value (d(TTGGGTT)4 [1]) was 0.25 ppm. The pIC50 (HeLa cells) was 4.51 and the pIC50 (HeLa cells; Homo sapiens, HeLa, 24 h) was 4.52.

In the case of C(=N\CCN1CCCCC1)/c1c2ccccc2c(/C=N/CCN2CCCCC2)c2ccccc12 [Compound 2d], the “Difference from 11.55 ppm (ppm) G3NH” value (d(TTGGGTT)4 [1]) was −0.03 ppm, the “Difference from 11.22 ppm (ppm) G4NH” value (d(TTGGGTT)4 [1]) was −0.07 ppm and the “Difference from 10.86 ppm (ppm) G5NH” value (d(TTGGGTT)4 [1]) was −0.13 ppm. For the same compound, the “Difference from 1.58 ppm (ppm) T6CH3” value (d(TTGGGTT)4 [1]) was 0.094 ppm, the “Difference from 7.23 ppm (ppm) T6H6/8” value (d(TTGGGTT)4 [1]) was 0.16 ppm and the “Δδ (ppm)” value (d(TTGGGTT)4 [1]) was 0.13 ppm. It also gave a pIC50 (HeLa cells) of 4.62 and a pIC50 (HeLa cells; Homo sapiens, HeLa, 24 h) of 4.62.

In the case of Cc1cnc(/N=C/c2c3ccccc3c(/C=N/c3ncc(C)s3)c3ccccc23)s1 [Compound 2e], the “Difference from 11.55 ppm (ppm) G3NH” value (d(TTGGGTT)4 [1]) was −0.056 ppm, the “Difference from 11.22 ppm (ppm) G4NH” value (d(TTGGGTT)4 [1]) was −0.11 ppm and the “Difference from 10.86 ppm (ppm) G5NH” value (d(TTGGGTT)4 [1]) was −0.24 ppm. The “Difference from 1.58 ppm (ppm) T6CH3” value (d(TTGGGTT)4 [1]) was 0.146 ppm, the “Difference from 7.23 ppm (ppm) T6H6/8” value (d(TTGGGTT)4 [1]) was 0.19 ppm and the “Δδ (ppm)” value (d(TTGGGTT)4 [1]) was 0.24 ppm. The pIC50 (HeLa cells; Homo sapiens, HeLa, 24 h) was 4.69.

In the case of COc1cccc2c1C(=O)c1c(O)c3c(c(O)c1C2=O)C[C@@](O)(C(=O)CO)C[C@@H]3O[C@H]1C[C@H](N)[C@H](O)[C@H](C)O1 [Doxorubicin], the “Δδ (ppm)” value (d(TTGGGTT)4 [2]) is listed as 0.31 ppm.

For COc1cccc2c1C(=O)c1c(O)c3c(c(O)c1C2=O)C[C@@](O)(C(=O)CO)C[C@@H]3O[C@H]1C[C@H](N2CCO[C@H](OC)C2)[C@H](O)[C@H](C)O1 [Nemorubicin], the “Δδ (ppm)” value (d(TTGGGTT)4 [2]) is listed as 0.31 ppm.

Source: article PMC8152782, “Synthesis and evaluation of bis(imino)anthracene derivatives as G-quadruplex ligands” (RSC Medicinal Chemistry, 2021)
